# Read-outs that look alike come from different tables or passages of the source.
# What was measured:
# [1] = Liver microsome stability experiment (beagle dog); format: in vitro ADME; settings: for CLint scaled at 1 µM: beagle, dog, liver microsomes, pH 7.4, Beagle dog liver microsomes; for half-life at 1 µM: pH 7.4, Beagle dog liver microsomes
# Description: This experiment aimed to evaluate the phase I metabolic stability of the compounds of the present disclosure in liver microsomes of SD rats, beagle dogs, cynomolgus monkeys, and humans.
# • (1) Buffer preparation: 73.21 g of dipotassium hydrogen phosphate trihydrate and 10.78 g of potassium dihydrogen phosphate were dissolved in 4000 mL of ultrapure water. The pH of the solution was adjusted to within 7.40 ± 0.10 using 10% phosphoric acid or 1 M potassium hydroxide, resulting in a final concentration of 100 mM. • (2) Solution preparation and dilution: Stock solutions of the test compounds at a concentration of 10 mM were prepared in dimethyl sulfoxide (DMSO) and stored at 4 °C, and they were diluted into 100 µM working solutions with pure acetonitrile when used. A stock solution of the control compound testosterone at a concentration of 10 mM was prepared in DMSO and stored at -20 °C, and it was diluted into a 400 µM working solution with pure acetonitrile when used. • (3) Termination solution preparation: The termination solution was an acetonitrile solution containing an internal standard (terfenadine). The prepared termination solution was stored in a refrigerator at 2-8 °C. • (4) Liver microsome solution preparation: Liver microsomes from various species (SD rat, beagle dog, cynomolgus monkey, and human) were diluted into 20× working solutions using 100 mM potassium phosphate buffer. The final concentration of the liver microsomes in the reaction system was 0.5 mg/mL. • (5) Reduced nicotinamide adenine dinucleotide phosphate (NADPH) regeneration system preparation: Appropriate amounts of nicotinamide adenine dinucleotide phosphate (NADP), glucose-6-phosphate (G6P), magnesium chloride (MgCl2), and glucose-6-phosphate dehydrogenase (G6PDH) were weighed to prepare stock solutions at concentrations of 65.33 mM, 330 mM, 300 mM, and 250 Units/mL, respectively. The four stock solutions described above were each added to an appropriate amount of buffer, and the mixture was mixed well by gently inverting up and down. The final concentrations of NADP, G6P, MgCl2, and G6PDH in the NADPH regeneration system were 2.65 mM, 10.2 mM, 6.12 mM, and 2.45 Units/mL, respectively. • (6) Incubation process: The incubation was completed in 96-well plates. Several incubation plates were prepared and named T0, T5, T10, T20, T40, T60, and NCF60, respectively. The first 6 plates corresponded to reaction time points of 0 min, 5 min, 10 min, 20 min, 40 min, and 60 min, respectively. The NCF60 plate was incubated for 60 min with potassium phosphate buffer replacing the NADPH regeneration system solution. Samples under all conditions were prepared in triplicate.
# 2 µL of the test compound or control compound and 100 µL of microsome working solution (containing 1 mg/mL liver microsome protein) were added to each of the T0, T5, T10, T20, T40, T60, and NCF60 plates, and only the microsome working solution was added to the Blank 60 plate. The plates described above were then pre-incubated in a 37 °C water bath for about 10 min.
# After the pre-incubation was completed, 98 µL of the NADPH regeneration system working solution was added to each sample well except for the NCF60 plate and the T0 plate to initiate the reaction, and 98 µL of potassium phosphate buffer was added to each well of the NCF60 plate. Therefore, for the sample wells containing the test sample or control substance working solution, the final concentrations of TC and testosterone in the reaction were 1 µM and 4 µM, respectively, the concentration of liver microsomes was 0.5 mg/mL, and the final concentrations of DMSO and acetonitrile in the reaction system were 0.01% (v/v) and 0.99% (v/v), respectively.
# After incubation for an appropriate time (e.g., 5 min, 10 min, 20 min, 40 min, and 60 min), 600 µL of a termination solution (an acetonitrile solution containing 100 ng/mL […]) was added to each test compound sample well and control compound sample well to terminate the reaction. […]
# Lp-PLA2 = target: T1, Lp-PLA2 (Homo sapiens, UniProt Q13093); assay: Inhibitory activity against Lp-PLA2 in human plasma (Thio-PAF assay); format: biochemical; settings: 2-thio-PAF substrate, 30 min pre-incubation
# T1 construct: from tissue; host or cells: pooled (mixed) human plasma
# T1 sequence (Q13093 22-441): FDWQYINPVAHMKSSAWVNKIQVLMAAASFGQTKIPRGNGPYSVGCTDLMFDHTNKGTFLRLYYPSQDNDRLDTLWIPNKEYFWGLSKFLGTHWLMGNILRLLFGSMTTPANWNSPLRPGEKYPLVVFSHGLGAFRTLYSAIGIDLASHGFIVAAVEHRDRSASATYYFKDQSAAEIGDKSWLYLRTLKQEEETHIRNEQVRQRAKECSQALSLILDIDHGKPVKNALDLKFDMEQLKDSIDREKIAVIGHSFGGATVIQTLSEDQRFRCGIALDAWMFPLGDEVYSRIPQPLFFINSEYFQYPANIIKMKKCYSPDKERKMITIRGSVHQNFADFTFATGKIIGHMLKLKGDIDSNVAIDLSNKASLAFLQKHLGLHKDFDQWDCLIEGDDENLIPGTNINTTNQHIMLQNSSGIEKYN
# Excerpt: The literature reports that 2-Thio-PAF, commercially available from Cayman Chemical, is a substrate for PAF hydrolase (PAF-AH). After its cleavage by PAF-AH, the free thiol released at the sn-2 position can react with 7-diethylamino-3-(4'-maleimidophenyl)-4-methylcoumarin (CPM), resulting in increased fluorescence. Thus, Lp-PLA2 inhibitors can prevent this cleavage, and no increase in fluorescence is observed. In this experiment, the human plasma assay employed the same thioester analog of PAF as described in the recombinant human Lp-PLA2 assay described above.
# • (1) The Thio-PAF assay was performed as a quenched 75 µL assay. A compound source plate was prepared by preparing 1:4 (v/v) serial diluents of the compounds in pure DMSO in a 96-well microplate. • (2) 1 µL of each test compound from the compound source plate was transferred into a 96-well microplate containing 40 µL of pre-thawed mixed human plasma by a Rainin multichannel pipette, and the plasma was thawed at room temperature and centrifuged at 2000 rpm for 10 min. The plate was shaken on a microplate shaker for 2 min for uniform mixing. • (3) After 30 min of pre-incubation at room temperature, 10 µL of a substrate solution was added sequentially to the 96-well microplate described above by a Rainin multichannel pipette. The substrate solution contained 2.5 mM 2-thio-PAF (from an ethanol mother liquor), 32 µM CPM (from a DMSO mother liquor), and 3.2 mM N-ethylmaleimide (freshly prepared in DMSO for each experiment) in assay buffer (pH 7.4) consisting of 50 mM HEPES, 150 mM NaCl, and 1 mM CHAPS. After the addition was completed, the plate was immediately shaken for 2 min, and the reaction time for the substrate was 4 min in total. After the reaction was completed, the reaction was quenched with 25 µL of an aqueous solution of 5% trifluoroacetic acid. The plate was centrifuged at 1000 rpm for 1 min. • (4) The FLINT signal (FLINT380/480) was read using a microplate reader. • (5) IC50 data, curve fitting, and QC analyses were performed using GraphPad Prism 8.0 and Excel.
# [2] = 0.5 mg/mL, 1 µM, read-out: CL(liver)
# [3] = 0.5 mg/mL, 1 µM, read-out: CLint(liver)
# [4] = read-out: Clearance rate classification
SMILES,"CLint scaled at 1 µM [1, 2]","CLint scaled at 1 µM [1, 3]","CLint scaled at 1 µM [1, 4]","half-life at 1 µM ([1]; 0.5 mg/mL, 1 µM)",IC50 (Lp-PLA2)
"O=c1nc(OCc2cc(F)c(Oc3ccnc(C(F)(F)F)c3)c(F)c2)cc2n1C[C@H]1CCCN21 [Comparative Example 1, reference compound]",10.5 mL/min/kg,15.8 mL/min/kg,13.2 to 72.1 mL/min/kg,2.1 h,16.4 nM
O=c1nc(OCc2cc(F)c(Oc3ccnc(C(F)(F)F)c3)c(F)c2)cc2n1C[C@H]1CCN21 [Example 34-R],< 8 mL/min/kg,< 10.7 mL/min/kg,≤ 13.2 mL/min/kg,> 3.11 h,3.3 nM
